From patent publication US10478426B2, “Enhancer of Zeste Homolog 2 inhibitors” (GlaxoSmithKline LLC, priority 2012, dated 2019)

Biological target: EZH2 within the PRC2 complex (Homo sapiens (Human), UniProt Q15910)
Test: EZH2 methyltransferase scintillation proximity assay (SPA) with PRC2 complex
Format: biochemical
Details: 3H-SAM methyl transfer to Histone H3 of HeLa mononucleosomes; 30 min preincubation, 1 hour reaction
Protocol: Compounds contained herein were evaluated for their ability to inhibit the methyltransferase activity of EZH2 within the PRC2 complex. Human PRC2 complex was prepared by co-expressing each of the 5 member proteins (FLAG-EZH2, EED, SUZ12, RbAp48, AEBP2) in Sf9 cells followed by co-purification. Enzyme activity was measured in a scintillation proximity assay (SPA) where a tritiated methyl group is transferred from 3H-SAM to a lysine residue on Histone H3 of a mononucleosome, purified from HeLa cells. Mononucleosomes were captured on SPA beads and the resulting signal is read on a ViewLux plate reader.
Part A. Compound Preparation
• 1. Prepare 10 mM stock of compounds from solid in 100% DMSO. • 2. Set up an 11-point serial dilution (1:3 dilution, top concentration 10 mM) in 100% DMSO for each test compound in a 384 well plate leaving columns 6 and 18 for DMSO controls. • 3. Dispense 100 nL of compound from the dilution plate into reaction plates (Grenier Bio-One, 384-well, Cat #784075). Part B. Reagent Preparation Prepare the Following Solutions: • 1. 50 mM Tris-HCl, pH 8: Per 1 L of base buffer, combine 1 M Tris-HCl, pH 8 (50 mL) and distilled water (950 mL). • 2. 1× Assay Buffer: Per 10 mL of 1× Assay Buffer, combine 50 mM Tris-HCl, pH 8 (9958 uL), 1 M MgCl2 (20 uL), 2 M DTT (20 uL), and 10% Tween-20 (2 uL) to provide a final concentration of 50 mM Tris-HCl, pH 8, 2 mM MgCl2, 4 mM DTT, 0.002% Tween-20. • 3. 2× Enzyme Solution: Per 10 mL of 2× Enzyme Solution, combine 1× Assay Buffer and PRC2 complex to provide a final enzyme concentration of 10 nM. • 4. SPA Bead Suspension: Per 1 mL of SPA Bead Suspension, combine PS-PEI coated LEADSeeker beads (40 mg) and ddH2O (1 mL) to provide a final concentration of 40 mg/mL. • 5. 2× Substrate Solution: Per 10 mL of 2× Substrate Solution, combine 1× Assay Buffer (9728.55 uL), 800 ug/mL mononucleosomes (125 uL), 1 mM cold SAM (4 uL), and 7.02 uM 3H-SAM (142.45 uL; 0.55 mCi/mL) to provide a final concentration of 5 ug/mL nucleosomes, 0.2 uM cold SAM, and 0.05 uM 3H-SAM. • 6. 2.67× Quench/Bead Mixture: Per 10 mL of 2.67× Quench/Bead Mixture, combine ddH2O (9358 uL), 10 mM cold SAM (267 uL), 40 mg/mL Bead Suspension (375 uL) to provide a final concentration of 100 uM cold SAM and 0.5 mg/mL SPA beads. Part C. Assay Reaction in 384-Well Grenier Bio-One Plates Compound Addition • 1. Dispense 100 nL/well of 100× Compound to test wells (as noted above). • 2. Dispense 100 nL/well of 100% DMSO to columns 6 & 18 for high and low controls, respectively. Assay • 1. Dispense 5 uL/well of 1× Assay Buffer to column 18 (low control reactions). • 2. Dispense 5 uL/well of 2× Enzyme Solution to columns 1-17, 19-24. • 3. Spin assay plates for ˜1 minute at 500 rpm. • 4. Stack the assay plates, covering the top plate. • 5. Incubate the compound/DMSO with the enzyme for 30 minutes at room temperature. • 6. Dispense 5 uL/well of 2× Substrate Solution to columns 1-24. • 7. Spin assay plates for ˜1 minute at 500 rpm. • 8. Stack the assay plates, covering the top plate. • 9. Incubate the assay plates at room temperature for 1 hour. Quench/Bead Addition • 1. Dispense 5 uL/well of the 3× Quench/Bead Mixture to columns 1-24. • 2. Seal the top of each assay plate with adhesive TopSeal. • 3. Spin assay plates for ˜1 minute at 500 rpm. • 4. Equilibrate the plates for >20 min. Read Plates • 1. Read the assay plates on the Viewlux Plate Reader utilizing the 613 nm emission filter with a 300 s read time. Reagent addition can be done manually or with automated liquid handler. • The final DMSO concentration in this assay is 1%. • The positive control is in column 6; negative control is in column 18. • Final starting concentration of compounds is 100 μM. Results
Percent inhibition was calculated relative to the DMSO control for each compound concentration and the resulting values were fit using standard IC50 fitting parameters within the ABASE data fitting software package.

Chain of EZH2 within the PRC2 complex (Q15910 whole entry): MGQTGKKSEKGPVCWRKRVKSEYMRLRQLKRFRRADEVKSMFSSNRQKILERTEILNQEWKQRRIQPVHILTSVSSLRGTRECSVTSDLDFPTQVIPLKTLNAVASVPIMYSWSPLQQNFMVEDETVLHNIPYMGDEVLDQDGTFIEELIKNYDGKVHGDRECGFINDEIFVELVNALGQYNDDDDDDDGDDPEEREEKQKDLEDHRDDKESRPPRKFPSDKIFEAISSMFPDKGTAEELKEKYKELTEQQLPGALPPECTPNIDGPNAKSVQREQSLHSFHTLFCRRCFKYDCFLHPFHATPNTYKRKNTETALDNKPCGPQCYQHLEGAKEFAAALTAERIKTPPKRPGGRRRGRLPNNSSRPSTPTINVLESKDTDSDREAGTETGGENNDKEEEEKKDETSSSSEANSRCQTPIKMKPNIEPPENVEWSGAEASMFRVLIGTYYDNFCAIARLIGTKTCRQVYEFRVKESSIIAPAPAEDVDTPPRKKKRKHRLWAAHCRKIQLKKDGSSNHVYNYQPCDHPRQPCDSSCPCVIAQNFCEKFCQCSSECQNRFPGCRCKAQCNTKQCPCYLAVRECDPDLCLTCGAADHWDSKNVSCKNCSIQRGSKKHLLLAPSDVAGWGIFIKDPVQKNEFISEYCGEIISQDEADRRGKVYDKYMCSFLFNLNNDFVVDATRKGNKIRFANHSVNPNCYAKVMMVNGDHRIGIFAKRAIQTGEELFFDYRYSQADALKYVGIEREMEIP
Chain of EZH2 within the PRC2 complex (O75530 whole entry partner): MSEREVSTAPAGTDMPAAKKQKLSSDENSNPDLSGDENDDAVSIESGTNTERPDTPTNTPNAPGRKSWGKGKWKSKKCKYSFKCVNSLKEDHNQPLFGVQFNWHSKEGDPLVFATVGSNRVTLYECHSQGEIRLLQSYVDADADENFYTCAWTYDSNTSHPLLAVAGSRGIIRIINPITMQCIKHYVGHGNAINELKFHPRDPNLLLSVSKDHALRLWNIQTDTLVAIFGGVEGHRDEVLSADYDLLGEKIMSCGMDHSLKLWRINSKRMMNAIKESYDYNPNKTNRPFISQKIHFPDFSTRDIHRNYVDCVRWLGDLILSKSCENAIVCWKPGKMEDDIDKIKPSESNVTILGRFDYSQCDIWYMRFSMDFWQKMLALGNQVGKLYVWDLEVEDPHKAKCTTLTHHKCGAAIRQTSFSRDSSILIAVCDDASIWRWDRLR
Chain of EZH2 within the PRC2 complex (Q15022 whole entry partner): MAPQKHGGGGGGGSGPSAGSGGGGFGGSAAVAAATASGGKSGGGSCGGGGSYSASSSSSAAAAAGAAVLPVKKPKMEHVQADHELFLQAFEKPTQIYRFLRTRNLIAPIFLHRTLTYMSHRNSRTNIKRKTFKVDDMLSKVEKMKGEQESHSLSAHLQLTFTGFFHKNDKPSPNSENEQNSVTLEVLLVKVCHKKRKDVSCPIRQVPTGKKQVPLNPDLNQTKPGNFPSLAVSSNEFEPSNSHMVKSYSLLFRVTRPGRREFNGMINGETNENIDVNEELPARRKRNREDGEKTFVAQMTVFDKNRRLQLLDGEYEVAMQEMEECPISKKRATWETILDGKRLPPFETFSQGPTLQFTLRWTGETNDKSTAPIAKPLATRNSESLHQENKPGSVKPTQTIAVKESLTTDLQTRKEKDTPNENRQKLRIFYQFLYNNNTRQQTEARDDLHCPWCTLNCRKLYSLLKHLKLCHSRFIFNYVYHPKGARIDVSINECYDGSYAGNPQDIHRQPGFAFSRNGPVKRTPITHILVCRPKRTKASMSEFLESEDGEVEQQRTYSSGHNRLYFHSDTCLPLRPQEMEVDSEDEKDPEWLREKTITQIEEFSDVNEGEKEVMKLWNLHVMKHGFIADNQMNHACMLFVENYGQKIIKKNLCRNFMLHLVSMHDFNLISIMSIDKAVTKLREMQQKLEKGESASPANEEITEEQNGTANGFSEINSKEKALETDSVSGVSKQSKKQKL
Chain of EZH2 within the PRC2 complex (Q09028 whole entry partner): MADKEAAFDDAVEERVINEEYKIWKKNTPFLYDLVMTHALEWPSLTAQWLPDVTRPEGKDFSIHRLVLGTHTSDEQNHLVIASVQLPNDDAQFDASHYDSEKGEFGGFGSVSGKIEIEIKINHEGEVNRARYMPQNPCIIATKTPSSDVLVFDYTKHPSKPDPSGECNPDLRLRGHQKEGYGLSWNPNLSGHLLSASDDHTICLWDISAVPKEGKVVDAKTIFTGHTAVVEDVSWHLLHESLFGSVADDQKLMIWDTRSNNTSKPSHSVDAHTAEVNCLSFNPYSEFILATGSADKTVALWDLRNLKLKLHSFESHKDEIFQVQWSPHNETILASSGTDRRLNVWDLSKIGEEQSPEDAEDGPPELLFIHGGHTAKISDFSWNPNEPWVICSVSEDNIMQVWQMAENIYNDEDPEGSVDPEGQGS
Chain of EZH2 within the PRC2 complex (Q6ZN18 whole entry partner): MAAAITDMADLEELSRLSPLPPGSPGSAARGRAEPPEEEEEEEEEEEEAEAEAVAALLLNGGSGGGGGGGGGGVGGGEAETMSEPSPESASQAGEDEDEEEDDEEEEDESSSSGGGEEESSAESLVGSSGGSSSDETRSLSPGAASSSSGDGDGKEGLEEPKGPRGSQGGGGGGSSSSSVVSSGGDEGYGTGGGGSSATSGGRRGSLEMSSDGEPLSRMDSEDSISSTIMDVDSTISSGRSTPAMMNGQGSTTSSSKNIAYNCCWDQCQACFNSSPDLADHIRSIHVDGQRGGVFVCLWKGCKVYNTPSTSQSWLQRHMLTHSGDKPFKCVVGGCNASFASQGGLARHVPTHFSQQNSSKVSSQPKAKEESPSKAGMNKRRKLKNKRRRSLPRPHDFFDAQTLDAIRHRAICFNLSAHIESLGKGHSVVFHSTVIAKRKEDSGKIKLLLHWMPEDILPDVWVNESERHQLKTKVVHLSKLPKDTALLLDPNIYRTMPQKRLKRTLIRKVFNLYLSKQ

Structure (SMILES) | IC50 [µM]
Cc1cc(C)c(CNC(=O)c2cc(Cl)cc(OC(C)C)c2Cl)c(=O)[nH]1 [Example 24, 2,5-Dichloro-N-[(4,6-dimethyl-2-oxo-1,2-dihydro-3-pyridinyl)methyl]-3-[(1-methylethyl)oxy]benzamide] | 0.25
CCC(C)Oc1cc(C#N)cc(C(=O)NCc2c(C)cc(C)[nH]c2=O)c1C (centres unmarked) [Example 44, 3-(sec-Butoxy)-5-cyano-N-((4,6-dimethyl-2-oxo-1,2-dihydropyridin-3-yl)methyl)-2-methylbenzamide] | 0.316
Cc1cc(C)c(CNC(=O)c2cc(Cl)cc(NC(C)CO)c2C)c(=O)[nH]1 (centres unmarked) [Example 26, 5—Chloro-N-[(4,6-dimethyl-2-oxo-1,2-dihydro-3-pyridinyl)methyl]-3-[(2-hydroxy-1-methylethyl)amino]-2-methylbenzamide] | 1
CCC(C)Oc1cc(Br)cc(C(=O)NCc2c(C)cc(C)[nH]c2=O)c1C (centres unmarked) [Example 20, 5-Bromo-3-(sec-butoxy)-N-((4,6-dimethyl-2-oxo-1,2-dihydropyridin-3-yl)methyl)-2-methylbenzamide] | 0.013
CCCc1cc(C)[nH]c(=O)c1CNC(=O)c1cc(Br)cc(NC(C)C)c1C [Example 1, 5-Bromo-2-methyl-3-[(1-methylethyl)amino]-N-[(6-methyl-2-oxo-4-propyl-1,2-dihydro-3-pyridinyl)methyl]benzamide] | 0.501
CCCc1cc(C)[nH]c(=O)c1CNC(=O)c1cc(-c2ccc(N3CCN(C)CC3)nc2)cc(NC(C)C)c1C [Example 2, 2-Methyl-3-[(1-methylethyl)amino]-N-[(6-methyl-2-oxo-4-propyl-1,2-dihydro-3-pyridinyl)methyl]-5-[6-(4-methyl-1-piperazinyl)-3-pyridinyl]benzamide] | 0.04
Cc1cc(Cc2ccccc2)c(CNC(=O)c2cc(Br)cc(NC(C)C)c2C)c(=O)[nH]1 [Example 4, 5-Bromo-2-methyl-3-[(1-methylethyl)amino]-N-{[6-methyl-2-oxo-4-(phenylmethyl)-1,2-dihydro-3-pyridinyl]methyl}benzamide] | 0.05
COc1cccc(C(=O)NCc2c(C)cc(C)[nH]c2=O)c1C [Example 36, N-((4,6-dimethyl-2-oxo-1,2-dihydropyridin-3-yl)methyl)-3-methoxy-2-methylbenzamide] | 2.5
